Test results reported in US7935686B2, “Acyloxyalkyl carbamate prodrugs, methods of synthesis, and use” (XenoPort, Inc., priority 2004, dated 2011).

What was measured:
[1] = Caco-2 homogenate S9 stability; format: in vitro ADME; conditions: Caco-2 S9 (0.5 mg protein per mL), 5 μM prodrug, 37° C.
Protocol: Caco-2 Homogenate S9 Stability: Caco-2 cells were grown for 21 days prior to harvesting. Culture medium was removed and cell monolayers were rinsed and scraped off into ice-cold 10 mM sodium phosphate/0.15 M potassium chloride, pH 7.4. Cells were lysed by sonication at 4° C. using a probe sonicator. Lysed cells were then transferred into 1.5 mL centrifuge vials and centrifuged at 9000 g for 20 min at 4° C. The resulting supernatant (Caco-2 cell homogenate S9 fraction) was aliquoted into 0.5 mL vials and stored at −80° C. until used.
For stability studies, prodrug (5 μM) was incubated in Caco-2 homogenate S9 fraction (0.5 mg protein per mL) for 60 min at 37° C. Concentrations of intact prodrug and released parent drug were determined at zero time and 60 minutes using LC/MS/MS.

[2] = Prodrug in vitro metabolism, human plasma; format: in vitro ADME; conditions: 2.0 μM substrate, no cofactors, 37° C.
Protocol: (§1) The stabilities of prodrugs were evaluated in one or more in vitro systems using a variety of preparations following methods known in the art. Tissues and/or preparations were obtained from commercial sources (e.g., Pel-Freez Biologicals, Rogers, Ark., or GenTest Corporation, Woburn, Mass.). Experimental conditions used for the in vitro studies are described in Table 1. Each preparation was incubated with test compound at 37° C. for one hour. Aliquots (50 μL) were removed at 0, 30, and 60 min and quenched with 0.1% trifluoroacetic acid in acetonitrile. Samples were then centrifuged and analyzed by LC/MS/MS. Stability of prodrugs towards specific enzymes (e.g., peptidases, etc.) were also assessed in vitro by incubation with the purified enzyme: […]

[3] = Prodrug in vitro metabolism, rat plasma; format: in vitro ADME; conditions: 2.0 μM substrate, no cofactors, 37° C.
Protocol: as §1

[4] = system: pancreatin; assay: Pancreatin stability; format: in vitro ADME, porcine; conditions: 1% (w/v) pancreatin, 5 μM prodrug, pH 7.5, 37° C.
Protocol: The stabilities of prodrugs were evaluated in one or more in vitro systems using a variety of preparations following methods known in the art. Tissues and/or preparations were obtained from commercial sources (e.g., Pel-Freez Biologicals, Rogers, Ark., or GenTest Corporation, Woburn, Mass.). Experimental conditions used for the in vitro studies are described in Table 1. Each preparation was incubated with test compound at 37° C. for one hour. Aliquots (50 μL) were removed at 0, 30, and 60 min and quenched with 0.1% trifluoroacetic acid in acetonitrile. Samples were then centrifuged and analyzed by LC/MS/MS. Stability of prodrugs towards specific enzymes (e.g., peptidases, etc.) were also assessed in vitro by incubation with the purified enzyme:
Pancreatin Stability: Stability studies were conducted by incubating prodrug (5 μM) with 1% (w/v) pancreatin (Sigma, P-1625, from porcine pancreas) in 0.025 M Tris buffer containing 0.5 M NaCl (pH 7.5) at 37° C. for 60 min. The reaction was stopped by addition of 2 volumes of methanol. After centrifugation at 14,000 rpm for 10 min, the supernatant was removed and analyzed by LC/MS/MS.

[5] = Prodrug in vitro metabolism, rat liver S9; format: in vitro ADME; conditions: Rat Liver S9 (0.5 mg/mL), 2.0 μM substrate, NADPH, 37° C.
Protocol: as §1

[6] = Prodrug in vitro metabolism, human liver S9; format: in vitro ADME; conditions: Human Liver S9 (0.5 mg/mL), 2.0 μM substrate, NADPH, 37° C.
Protocol: as §1

[7] = animal models (Merino et al.); cited from earlier work

Row | SMILES | Percent of Prodrug Remaining after 60 min. [1] | Percent of Prodrug Remaining after 60 min. [2] | Percent of Prodrug Remaining after 60 min. [3] | Percent of Prodrug Remaining after 60 min. [4] | Percent of Prodrug Remaining after 60 min. [5] | Percent of Prodrug Remaining after 60 min. [6] | absorption following administration into the colon [7]
1 | CC(C)C(=O)OC(OC(=O)NCCCP(C)(=O)O)C(C)C (stereo not shown) [Compound 194, 3-{[1-Isobutanoyloxyisobutoxy]carbonylamino}propyl Methylphosphinic Acid] | 71% | 77% | 38% | 91% | 63% | 66% | –
2 | CC(OC(=O)NCCCP(C)(=O)O)OC(=O)C1CCCCC1 (stereo not shown) [Compound 114, 3-{[1-Cyclohexanoyloxyethoxy]carbonylamino}propyl Methylphosphinic Acid] | 82% | 97% | 98% | 24% | 51% | 43% | –
3 | CP(=O)(O)CCCNC(=O)OCOC(=O)c1ccccc1 [Compound 195, 3-{[Benzoyloxymethoxy]carbonylamino}propyl Methylphosphinic Acid] | 91% | 78% | 100% | 62% | 85% | 64% | –
4 | NCC(CC(=O)O)c1ccc(Cl)cc1 (racemic) [Baclofen, (±)-4-Amino-3-(4-chlorophenyl)butanoic acid] | – | – | – | – | – | – | poorly absorbed
5 | CC(C)C(=O)OCOC(=O)NCCCP(C)(=O)O [Compound 115, 3-{[Isobutanoyloxymethoxy]carbonylamino}propyl Methylphosphinic Acid] | 20% | 30% | 7% | 20% | 67% | 57% | –
6 | CC(OC(=O)NCCCP(C)(=O)O)OC(=O)C(C)C (stereo not shown) [Compound 111, 3-{[1-Isobutanoyloxyethoxy]carbonylamino}propyl Methylphosphinic Acid] | 82% | 84% | 40% | 79% | 82% | 81% | –
